Laboratory results from patent publication US10125111B2, “Benzofuran compounds for the treatment of hepatitis C” (BRISTOL-MYERS SQUIBB COMPANY, priority 2015, dated 2018).

These compounds were tested on genotype 1b (Con-1) HCV replicon (assay: HCV Replicon Luciferase Assay). Details: Hepatitis C virus, 72 h; Huh-7 genotype 1b replicon, Renilla luciferase, 3 days incubation; read-out: EC50 1b (class).
Assay type: cell-based
Procedure: The cell lines used to evaluate compounds consist of a human hepatocyte derived cell line (Huh-7) that constitutively expresses a genotype 1b (Con-1) HCV replicon or a genotype 1b (Con-1) HCV replicon with an asparagine replacing the cysteine at amino acid 316, or a genotype 2a (JFH-1) replicon, containing a Renilla luciferase reporter gene. These cells were maintained in Dulbecco's modified Eagle medium (DMEM) containing 10% FBS, 100 U/mL penicillin/streptomycin and 1.0 mg/mL G418.
To evaluate compound efficacy, titrated compounds were transferred to sterile 384-well tissue culture treated plates, and the plates were seeded with HCV replicon cells (50 μL at a density of 2.4×10^3 cells/well) in DMEM containing 4% FBS (final DMSO concentration at 0.5%). After 3 days incubation at 37° C., cells were analyzed for Renilla Luciferase activity using the EnduRen substrate (Promega cat #E6485) according to the manufacturer's directions. Briefly, the EnduRen substrate was diluted in DMEM and then added to the plates to a final concentration of 7.5 μM. The plates were incubated for at least 1 h at 37° C. then read on a Viewlux Imager (PerkinElmer) using a luminescence program. The 50% effective concentration (EC50) was calculated using the four-parameter logistic Formula noted above.
Compound EC50 data is expressed as A: <100 nM; B=100-1000 nM; C>1000 nM).

| SMILES | EC50 |
| --- | --- |
| CNC(=O)c1c(-c2ccc(F)cc2)oc2cc(N(CCF)S(C)(=O)=O)c(-c3cccc(C(=O)N[C@@H](C)C4CC4)c3)cc12 [Compound 3009] | < 0.1 µM |
| CNC(=O)c1c(-c2ccc(F)cc2)oc2cc(N(CCF)S(C)(=O)=O)c(-c3cccc(C(=O)N4CCC(c5cccc(Cl)c5)C4)c3)cc12 (stereo not drawn) [Compound 3040] | < 0.1 µM |
| CNC(=O)c1c(-c2ccc(F)cc2)oc2cc(NCCCF)c(-c3cccc(C(=O)NC(C)(C#N)C4CC4)c3)cc12 (stereo not drawn) [Compound 5004] | < 0.1 µM |
| CNC(=O)c1c(-c2ccc(F)cc2)oc2cc(N(CCF)S(C)(=O)=O)c(-c3cccc(C(=O)NCC(C)(C)C)c3)cc12 [Compound 3015] | < 0.1 µM |
| CNC(=O)c1c(-c2ccc(F)cc2)oc2cc(N(CCCF)S(C)(=O)=O)c(-c3cccc(C(=O)NC(C)(C)C#N)c3)cc12 [Compound 4024] | < 0.1 µM |
| CNC(=O)c1c(-c2ccc(F)cc2)oc2cc(N(C(F)F)S(C)(=O)=O)c(-c3cccc(C(=O)NC(C)(C)C(F)(F)F)c3)cc12 [Compound 6003] | < 0.1 µM |
| CNC(=O)c1c(-c2ccc(F)cc2)oc2cc(N(CCC(F)(F)F)S(C)(=O)=O)c(-c3cccc(C(=O)NCC(F)(F)C(F)(F)F)c3)cc12 [Compound 9003] | < 0.1 µM |
| CNC(=O)c1c(-c2ccc(F)cc2)oc2cc(N(CCC(F)(F)F)S(C)(=O)=O)c(-c3cccc(C(=O)NC(C)(C)C#N)c3)cc12 [Compound 9006] | < 0.1 µM |
| CNC(=O)c1c(-c2ccc(F)cc2)oc2cc(N(CCF)S(C)(=O)=O)c(-c3cccc(C(=O)N4CCN(C)CC4c4ccccc4)c3)cc12 (stereo not drawn) [Compound 3019] | < 0.1 µM |
| C#CC(C)(CC)NC(=O)c1cccc(-c2cc3c(C(=O)NC)c(-c4ccc(F)cc4)oc3cc2N(CCCF)S(C)(=O)=O)c1 (stereo not drawn) [Compound 4029] | < 0.1 µM |
| CNC(=O)c1c(-c2ccc(F)cc2)oc2cc(N(CC(F)F)S(C)(=O)=O)c(-c3cccc(C(=O)NC(CF)(CF)CF)c3)cc12 [Compound 7004] | < 0.1 µM |
| CNC(=O)c1c(-c2ccc(F)cc2)oc2cc(NCCCF)c(-c3cccc(C(=O)NC(C)(C)C#N)c3)cc12 [Compound 5003] | < 0.1 µM |
| CNC(=O)c1c(-c2ccc(F)cc2)oc2cc(N(CCF)S(C)(=O)=O)c(-c3cccc(C(=O)N4CCC(NC(C)=O)C4)c3)cc12 (stereo not drawn) [Compound 3036] | > 1 µM |
| CNC(=O)c1c(-c2ccc(F)cc2)oc2cc(N(CCCF)S(C)(=O)=O)c(-c3cccc(C(=O)NC(C)C(F)(F)F)c3)cc12 (stereo not drawn) [Compound 4003] | < 0.1 µM |
| CNC(=O)c1c(-c2ccc(F)cc2)oc2cc(N(CCF)S(C)(=O)=O)c(-c3cccc(C(=O)N4CCN(C(=O)OC(C)(C)C)CC4c4ccccc4)c3)cc12 (stereo not drawn) [Compound 3031] | < 0.1 µM |
| CNC(=O)c1c(-c2ccc(F)cc2)oc2cc(N(CCF)S(C)(=O)=O)c(-c3cccc(C(=O)N4[C@@H](COC)CC[C@@H]4COC)c3)cc12 [Compound 3026] | 0.1 to 1 µM |
| CNC(=O)c1c(-c2ccc(F)cc2)oc2cc(N(CC(F)F)S(C)(=O)=O)c(-c3cccc(C(=O)OC)c3)cc12 [Compound 7001] | < 0.1 µM |
| CNC(=O)c1c(-c2ccc(F)cc2)oc2cc(N(CCF)S(C)(=O)=O)c(-c3cccc(C(=O)N4CCN(C(=O)OC(C)(C)C)CC4)c3)cc12 [Compound 3028] | < 0.1 µM |
| CNC(=O)c1c(-c2ccc(F)cc2)oc2cc(N(C(F)F)S(C)(=O)=O)c(-c3cccc(C(=O)NC(C)(C)C#N)c3)cc12 [Compound 6004] | < 0.1 µM |
| CNC(=O)c1c(-c2ccc(F)cc2)oc2cc(N(CC(F)F)S(C)(=O)=O)c(-c3cccc(C(=O)NC(C)(C)C(F)(F)F)c3)cc12 [Compound 7003] | < 0.1 µM |
| CNC(=O)c1c(-c2ccc(F)cc2)oc2cc(N(CCF)S(C)(=O)=O)c(-c3cccc(C(=O)NC(C)(C)C(=O)OC)c3)cc12 [Compound 3014] | < 0.1 µM |
| CNC(=O)c1c(-c2ccc(F)cc2)oc2cc(N(CC3CC3)S(C)(=O)=O)c(-c3cccc(C(=O)O)c3)cc12 [Compound 2002] | > 1 µM |
| CNC(=O)c1c(-c2ccc(F)cc2)oc2cc(N(CCCF)S(C)(=O)=O)c(-c3cccc(C(=O)N[C@H](C)C(F)(F)F)c3)cc12 [Compound 4030] | < 0.1 µM |
| CNC(=O)c1c(-c2ccc(F)cc2)oc2cc(N(CCF)S(C)(=O)=O)c(-c3cccc(C(=O)N4CCC[C@@H]4CO)c3)cc12 [Compound 3030] | 0.1 to 1 µM |
| CNC(=O)c1c(-c2ccc(F)cc2)oc2cc(N(CC3CC3)S(C)(=O)=O)c(-c3cccc(C(=O)NC(C)(C)C(F)(F)F)c3)cc12 [Compound 2003] | < 0.1 µM |

Same assay, conditions: Hepatitis C virus, 72 h; Huh-7 genotype 1b replicon, Renilla luciferase, 3 days incubation; read-out: EC50 (uM) 1b

| SMILES | EC50 |
| --- | --- |
| CNC(=O)c1c(-c2ccc(F)cc2)oc2cc(N(CCF)S(C)(=O)=O)c(-c3cccc(C(=O)N4CCC(c5cccc(Cl)c5)C4)c3)cc12 (stereo not drawn) [Compound 3040] | 0.0413 µM |
| CNC(=O)c1c(-c2ccc(F)cc2)oc2cc(N(C(F)F)S(C)(=O)=O)c(-c3cccc(C(=O)NC(C)(C)C(F)(F)F)c3)cc12 [Compound 6003] | 0.0095 µM |
| CNC(=O)c1c(-c2ccc(F)cc2)oc2cc(N(CCC(F)(F)F)S(C)(=O)=O)c(-c3cccc(C(=O)NCC(F)(F)C(F)(F)F)c3)cc12 [Compound 9003] | 0.0076 µM |
| C#CC(C)(CC)NC(=O)c1cccc(-c2cc3c(C(=O)NC)c(-c4ccc(F)cc4)oc3cc2N(CCCF)S(C)(=O)=O)c1 (stereo not drawn) [Compound 4029] | 0.0059 µM |
| CNC(=O)c1c(-c2ccc(F)cc2)oc2cc(N(CCCF)S(C)(=O)=O)c(-c3cccc(C(=O)NC(C)C(F)(F)F)c3)cc12 (stereo not drawn) [Compound 4003] | 0.0093 µM |
| CNC(=O)c1c(-c2ccc(F)cc2)oc2cc(N(CCF)S(C)(=O)=O)c(-c3cccc(C(=O)N4[C@@H](COC)CC[C@@H]4COC)c3)cc12 [Compound 3026] | 0.332 µM |
| CNC(=O)c1c(-c2ccc(F)cc2)oc2cc(N(CC3CC3)S(C)(=O)=O)c(-c3cccc(C(=O)O)c3)cc12 [Compound 2002] | 7.55 µM |
| CNC(=O)c1c(-c2ccc(F)cc2)oc2cc(N(CCF)S(C)(=O)=O)c(-c3cccc(C(=O)N4CCC[C@@H]4CO)c3)cc12 [Compound 3030] | 0.139 µM |
